Values belong to the molecule of their own block, whether it stands above or below them. Activity calls are given as the source filed them. For most assays here, no stated cut-off is given here; in the data, active = IC50 of 10 µM or less and inactive = more.
Columns and labels:
[1] = target: Melanin-concentrating hormone receptor 1 (Homo sapiens, UniProt Q99705); assay: Fluorescence-based counterscreen for antagonists of the G-protein coupled receptor 7 (GPR7): cell-based high throughput dose response assay to identify antagonists of the melanin-concentrating hormone receptor 1 (MCHR1).; type: functional
Chain of Melanin-concentrating hormone receptor 1 (Q99705 whole entry): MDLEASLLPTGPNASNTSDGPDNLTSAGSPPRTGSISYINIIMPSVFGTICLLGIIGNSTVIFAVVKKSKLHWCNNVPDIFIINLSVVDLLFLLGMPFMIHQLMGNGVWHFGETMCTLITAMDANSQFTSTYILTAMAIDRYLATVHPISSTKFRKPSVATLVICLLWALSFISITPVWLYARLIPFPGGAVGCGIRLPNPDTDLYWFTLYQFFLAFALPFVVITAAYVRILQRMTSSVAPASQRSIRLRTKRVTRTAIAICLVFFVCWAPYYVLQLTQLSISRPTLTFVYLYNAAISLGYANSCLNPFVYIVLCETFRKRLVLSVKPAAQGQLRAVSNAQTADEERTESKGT

[2] = target: T1, Neuropeptide Y receptor type 1 (Homo sapiens, UniProt P25929); assay: IC50 of human NPY-Y1 blockers – cell-based, dose response (AID 1277); type: functional
T1 sequence (P25929 whole entry): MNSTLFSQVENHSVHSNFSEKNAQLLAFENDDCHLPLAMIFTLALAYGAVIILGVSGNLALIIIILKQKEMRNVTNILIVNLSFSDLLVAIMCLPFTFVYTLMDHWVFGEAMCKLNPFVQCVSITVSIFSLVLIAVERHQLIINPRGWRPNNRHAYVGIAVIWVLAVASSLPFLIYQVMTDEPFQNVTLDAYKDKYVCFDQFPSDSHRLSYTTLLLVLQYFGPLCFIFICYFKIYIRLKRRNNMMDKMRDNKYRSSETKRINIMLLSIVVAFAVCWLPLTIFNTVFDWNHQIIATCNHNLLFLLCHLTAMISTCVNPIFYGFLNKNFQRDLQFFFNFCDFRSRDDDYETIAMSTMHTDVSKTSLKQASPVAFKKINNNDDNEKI

[3] = target: T2, Neuropeptides B/W receptor type 1 (Homo sapiens, UniProt P48145); assay: Fluorescence-based dose response cell-based high throughput screening assay to identify antagonists of the G-protein coupled receptor 7 (GPR7). [Related pubchem assays: 1952 (Screening assay (GPR7 antagonists).), 1880 (Summary AID.)]; type: functional
T2 sequence (P48145 whole entry): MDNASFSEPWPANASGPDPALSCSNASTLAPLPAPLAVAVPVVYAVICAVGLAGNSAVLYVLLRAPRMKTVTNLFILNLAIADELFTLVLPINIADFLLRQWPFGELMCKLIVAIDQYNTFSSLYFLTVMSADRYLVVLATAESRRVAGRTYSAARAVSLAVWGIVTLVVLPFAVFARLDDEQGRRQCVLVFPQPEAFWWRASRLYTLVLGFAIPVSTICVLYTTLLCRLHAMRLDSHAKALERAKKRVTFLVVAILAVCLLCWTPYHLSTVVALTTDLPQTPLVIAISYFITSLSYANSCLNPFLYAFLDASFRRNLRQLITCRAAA

[4] = target: T3, Neuropeptide Y receptor type 2 (Homo sapiens, UniProt P49146); assay: IC50 for human NPY-Y2 blockade – cell-based, counter-screen for NPY-Y1 antagonist project, dose response (AID 1278); type: functional
T3 sequence (P49146 whole entry): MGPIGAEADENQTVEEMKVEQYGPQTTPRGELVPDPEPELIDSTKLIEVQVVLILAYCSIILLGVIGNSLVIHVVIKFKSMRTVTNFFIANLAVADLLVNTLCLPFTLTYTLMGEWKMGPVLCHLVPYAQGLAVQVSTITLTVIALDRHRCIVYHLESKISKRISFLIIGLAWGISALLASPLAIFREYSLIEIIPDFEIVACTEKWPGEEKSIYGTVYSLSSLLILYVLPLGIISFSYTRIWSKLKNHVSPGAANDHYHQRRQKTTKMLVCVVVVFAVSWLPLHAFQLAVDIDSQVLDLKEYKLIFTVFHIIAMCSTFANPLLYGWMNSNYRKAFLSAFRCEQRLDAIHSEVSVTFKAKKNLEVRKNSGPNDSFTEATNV

Estrogen receptor = target: T4, Estrogen receptor (Homo sapiens, UniProt P03372); assay: ERα coactivator recruitment enhancers – biochemical, TR-FRET, ERα LBD, dose response (AID 737)
T4 sequence (P03372 whole entry): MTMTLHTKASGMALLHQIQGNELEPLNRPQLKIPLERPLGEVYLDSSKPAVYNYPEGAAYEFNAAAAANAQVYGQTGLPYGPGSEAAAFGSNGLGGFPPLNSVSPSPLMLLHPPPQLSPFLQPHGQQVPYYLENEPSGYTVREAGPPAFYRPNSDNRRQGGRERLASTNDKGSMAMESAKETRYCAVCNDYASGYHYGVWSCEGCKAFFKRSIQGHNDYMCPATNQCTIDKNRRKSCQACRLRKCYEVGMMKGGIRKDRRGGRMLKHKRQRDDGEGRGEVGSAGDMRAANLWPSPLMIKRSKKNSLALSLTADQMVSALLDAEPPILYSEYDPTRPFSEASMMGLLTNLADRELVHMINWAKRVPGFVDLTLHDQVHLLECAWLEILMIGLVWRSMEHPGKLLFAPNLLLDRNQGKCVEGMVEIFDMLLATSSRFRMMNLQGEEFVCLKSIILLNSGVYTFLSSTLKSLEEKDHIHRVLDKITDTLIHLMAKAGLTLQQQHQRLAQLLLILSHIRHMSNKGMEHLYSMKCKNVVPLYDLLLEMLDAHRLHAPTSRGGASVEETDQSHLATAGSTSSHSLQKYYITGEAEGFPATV

[5] = target: T5, Microphthalmia-associated transcription factor (Homo sapiens, UniProt O75030); assay: reducers of TRPM1 reporter luminescence, concentration series – cell-based, SK-MEL-5, cherry-picked, set 3, MITF inhibitor project, dose response (AID 493073); type: functional;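 further: SK-MEL-5 melanoma cells with luciferase driven by the MITF target TRPM1 promoter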
T5 sequence (O75030 whole entry): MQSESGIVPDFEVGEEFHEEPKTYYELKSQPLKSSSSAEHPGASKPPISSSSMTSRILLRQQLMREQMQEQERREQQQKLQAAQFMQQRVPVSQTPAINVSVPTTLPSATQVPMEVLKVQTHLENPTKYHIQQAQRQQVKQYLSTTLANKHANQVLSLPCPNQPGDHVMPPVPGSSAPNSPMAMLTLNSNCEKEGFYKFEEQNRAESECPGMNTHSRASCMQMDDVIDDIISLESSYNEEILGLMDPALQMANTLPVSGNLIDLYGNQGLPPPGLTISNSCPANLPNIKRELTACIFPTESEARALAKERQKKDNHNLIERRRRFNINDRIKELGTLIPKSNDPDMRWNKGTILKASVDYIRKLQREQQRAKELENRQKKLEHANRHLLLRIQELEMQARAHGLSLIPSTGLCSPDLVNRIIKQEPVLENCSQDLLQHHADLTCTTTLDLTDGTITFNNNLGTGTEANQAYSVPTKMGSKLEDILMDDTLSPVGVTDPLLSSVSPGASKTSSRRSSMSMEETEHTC

[6] = target: Sphingosine 1-phosphate receptor 1 (Homo sapiens, UniProt P21453); type: functional;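 further: Tango beta-arrestin reporter U2OS cells stimulated with S1P near its EC80; inhibitor potency meaning antagonism of receptor activation by the natural agonist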
Chain of Sphingosine 1-phosphate receptor 1 (P21453 whole entry): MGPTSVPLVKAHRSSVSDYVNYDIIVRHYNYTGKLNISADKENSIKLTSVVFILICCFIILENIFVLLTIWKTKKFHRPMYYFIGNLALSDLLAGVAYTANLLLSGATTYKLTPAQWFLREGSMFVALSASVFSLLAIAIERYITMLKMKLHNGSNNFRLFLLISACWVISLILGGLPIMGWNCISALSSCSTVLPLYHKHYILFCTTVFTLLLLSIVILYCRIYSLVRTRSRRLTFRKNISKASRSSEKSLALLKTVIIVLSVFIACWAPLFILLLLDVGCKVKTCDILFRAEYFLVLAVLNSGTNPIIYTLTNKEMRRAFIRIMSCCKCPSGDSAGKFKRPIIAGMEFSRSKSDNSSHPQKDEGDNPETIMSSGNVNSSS

Interleukin-8 [7] = target: T6, Interleukin-8 (Homo sapiens, UniProt P10145); assay: Dose Response confirmation of uHTS small molecule hits for cystic fibrosis induced NFkb Inhibitors in a TNFa-induced IL8 counterscreen.; type: functional; details: read-out: IC50_Mean
T6 sequence (P10145 whole entry): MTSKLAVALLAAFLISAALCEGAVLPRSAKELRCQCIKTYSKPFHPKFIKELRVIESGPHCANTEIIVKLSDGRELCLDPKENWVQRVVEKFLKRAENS

[8] = target: Sphingosine 1-phosphate receptor 4 (Homo sapiens, UniProt O95977); assay: Fluorescence dose response cell-based high throughput screening assay for antagonists of the Sphingosine 1-Phosphate Receptor 4 (S1P4). [Related pubchem assays: 1524 (Confirmation in triplicates.), 1510 (Primary screen.)]; type: functional
Chain of Sphingosine 1-phosphate receptor 4 (O95977 whole entry): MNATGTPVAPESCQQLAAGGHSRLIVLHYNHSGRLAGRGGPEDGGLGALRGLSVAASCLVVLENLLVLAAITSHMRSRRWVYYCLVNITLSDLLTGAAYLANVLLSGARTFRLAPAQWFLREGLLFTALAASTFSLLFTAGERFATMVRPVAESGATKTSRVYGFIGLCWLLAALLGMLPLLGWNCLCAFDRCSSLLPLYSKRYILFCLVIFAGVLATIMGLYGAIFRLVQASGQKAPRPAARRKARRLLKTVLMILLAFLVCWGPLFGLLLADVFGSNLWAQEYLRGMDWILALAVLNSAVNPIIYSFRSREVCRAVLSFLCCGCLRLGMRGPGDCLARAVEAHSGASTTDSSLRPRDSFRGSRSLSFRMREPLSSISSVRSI

[9] = target: T7, High affinity choline transporter 1 (Homo sapiens, UniProt Q9GZV3); assay: human choline transporter blockers, potency – cell-based, 5-point CRC, membrane potential dye, dose response (AID 504840); type: functional
T7 sequence (Q9GZV3 whole entry): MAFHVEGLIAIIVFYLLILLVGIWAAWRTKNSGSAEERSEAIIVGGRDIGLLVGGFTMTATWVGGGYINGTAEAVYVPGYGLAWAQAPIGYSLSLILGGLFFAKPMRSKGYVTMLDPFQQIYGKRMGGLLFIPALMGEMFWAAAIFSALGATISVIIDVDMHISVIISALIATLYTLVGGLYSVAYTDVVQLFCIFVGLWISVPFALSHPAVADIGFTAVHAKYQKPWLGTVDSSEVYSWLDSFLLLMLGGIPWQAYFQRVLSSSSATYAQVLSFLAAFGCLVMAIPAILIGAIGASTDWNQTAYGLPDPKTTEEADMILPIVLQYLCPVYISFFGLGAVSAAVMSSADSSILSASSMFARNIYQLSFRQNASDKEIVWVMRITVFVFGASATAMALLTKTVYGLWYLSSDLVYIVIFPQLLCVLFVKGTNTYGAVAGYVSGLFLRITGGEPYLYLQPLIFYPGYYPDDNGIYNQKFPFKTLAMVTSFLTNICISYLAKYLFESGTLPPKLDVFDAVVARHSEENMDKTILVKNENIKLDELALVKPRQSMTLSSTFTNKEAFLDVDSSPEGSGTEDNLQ

Interleukin-8 [10] = target: T6, Interleukin-8; assay: Dose Response confirmation of uHTS small molecule hits for cystic fibrosis induced NFkb Inhibitors in a PAF-induced IL8 counterscreen.; type: functional; details: read-out: IC50_Mean

IC50 [1]: > 43.8 µM (not active)
IC50 [2]: > 35 µM (not active)
IC50 [3]: > 43.8 µM (not active)
IC50 [4]: > 35 µM (not active)
SMILES: COc1ccc(-c2noc(CN3CCCCC3c3nccn3C)n2)cc1 (stereo unspecified)

EC50 (Estrogen receptor): 23.5 µM (active)
SMILES: O=C1c2ccccc2C(=O)N1CCCc1nc2ccccc2c(=O)n1CCCn1ccnc1

AC50 [5]: 10.9 µM (active)
IC50 [6]: 9.72 µM (active)
IC50 (Interleukin-8 [7]): 43 µM (inactive)
IC50 [8]: 2.34 µM (active)
IC50 [9]: 7.81 µM (active)
IC50 (Interleukin-8 [10]): 0.967 µM (active)
SMILES: CN(CCC#N)C(=O)COC(=O)c1ccccc1C(=O)c1ccc(Cl)c([N+](=O)[O-])c1

Reference: ChEMBL document CHEMBL1201862, “PubChem BioAssay data set” (2004)
